This note sets out measurements from patent US20240360139A1, “BLOOD BRAIN BARRIER PENETRATING SELECTIVE INHIBITORS OF ROCK2 PROTEIN KINASES AND USES THEREOF” (GENOSCO Inc., priority 2023, published 2024).

A word on the IC50: it is the midpoint of a concentration-inhibition curve.

Test [1] addresses T1, Recombinant ROCK1 (amino acids 1-477) (Homo sapiens, UniProt Q13464).
T1 construct: Recombinant ROCK1 (amino acids 1-477)
As to the kind of experiment: ROCK inhibition assay, LANCE Ultra TR-FRET (ROCK1). The conditions noted are these: 1 mM of ATP. In kind it is biochemical.

For test [2], the target named is T2, Recombinant ROCK2 (amino acids 5-554) (Homo sapiens, UniProt O75116).
T2 construct: ROCK2 (amino acids 5-554)
T2 sequence (O75116 5-554): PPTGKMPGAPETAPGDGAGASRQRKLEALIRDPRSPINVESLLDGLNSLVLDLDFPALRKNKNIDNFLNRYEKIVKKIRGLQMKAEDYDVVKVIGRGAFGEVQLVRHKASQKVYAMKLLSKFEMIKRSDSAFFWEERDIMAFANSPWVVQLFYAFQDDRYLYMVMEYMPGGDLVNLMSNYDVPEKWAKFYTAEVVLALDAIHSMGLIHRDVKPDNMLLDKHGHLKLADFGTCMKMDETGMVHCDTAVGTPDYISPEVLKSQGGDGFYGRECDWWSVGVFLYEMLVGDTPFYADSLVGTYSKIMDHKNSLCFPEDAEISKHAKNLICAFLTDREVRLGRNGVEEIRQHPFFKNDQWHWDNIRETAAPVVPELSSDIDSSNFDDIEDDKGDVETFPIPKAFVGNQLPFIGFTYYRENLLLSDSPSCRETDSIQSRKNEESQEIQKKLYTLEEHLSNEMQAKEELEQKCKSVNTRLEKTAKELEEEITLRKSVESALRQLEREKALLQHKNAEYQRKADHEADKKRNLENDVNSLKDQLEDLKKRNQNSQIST
The test is described as follows: ROCK inhibition assay, LANCE Ultra TR-FRET (ROCK2). In kind it is biochemical. The conditions noted are these: 1 mM of ATP. On the technique in general: Time-resolved FRET reads energy transfer from a long-lived donor to a nearby acceptor.

Structures can show the parent of a compound that is named as a salt. A value given as a limit tells only on which side of the number the result lay.

T1 sequence (Q13464 1-477): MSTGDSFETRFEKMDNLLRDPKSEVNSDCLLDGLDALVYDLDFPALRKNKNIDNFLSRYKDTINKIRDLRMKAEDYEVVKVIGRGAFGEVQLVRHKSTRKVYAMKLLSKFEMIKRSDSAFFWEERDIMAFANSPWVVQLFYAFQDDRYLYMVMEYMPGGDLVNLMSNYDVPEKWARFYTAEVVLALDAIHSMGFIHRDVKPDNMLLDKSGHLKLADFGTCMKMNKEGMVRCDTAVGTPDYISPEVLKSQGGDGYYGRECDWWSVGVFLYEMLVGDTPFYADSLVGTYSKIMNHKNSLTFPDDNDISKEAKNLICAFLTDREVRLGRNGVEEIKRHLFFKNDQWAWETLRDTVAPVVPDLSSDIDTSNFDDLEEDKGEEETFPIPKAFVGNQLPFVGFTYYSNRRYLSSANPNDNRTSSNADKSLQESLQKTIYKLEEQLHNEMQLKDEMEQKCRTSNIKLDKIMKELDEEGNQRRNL

With `COc1[nH]ncc1-c1cc2c(cn1)c(C(=O)C1COc3ccc(Cl)cc3C1)cn2CCN(C)C` (centres unmarked) [Compound 1-2, (6-chlorochroman-3-yl)(1-(2-(dimethylamino)ethyl)-6-(5-methoxy-1H-pyrazol-4-yl)-1H-pyrrolo[3,2-c]pyridin-3-yl)methanone dihydrochloride], the IC50 in test [1] was greater than 0.501 µM; in test [2] it was 0.021 to 0.2 µM.

As to `CCN(CC)CCn1cc(C(=O)[C@@H]2COc3ccc(OC)cc3C2)c2ccc(-c3cn[nH]c3Cl)cc21` [Compound 3-21], the results for the IC50 in test [1] and in test [2] were 0.201 to 0.5 µM and 0.021 to 0.2 µM, respectively.

In the case of `CCN1CC[C@@H]1Cn1cc(C(=O)[C@@H]2COc3ccc(OC)cc3C2)c2ccc(-c3cn[nH]c3Cl)cc21` [Compound 1-59], the IC50 in test [1] is greater than 0.501 µM; in test [2] it was less than 0.02 µM.

As to `COc1ccc2c(c1)CC(C(=O)c1nn(CCN(C)C)c3cc(-c4c[nH]nc4Cl)ccc13)CCO2` (centres unmarked) [Compound 5-65], the IC50 in test [1] and in test [2] was greater than 0.501 µM throughout.

Take `CN(C)CCn1cc(C(=O)C2COc3ccccc3O2)c2ccc(-c3cn[nH]c3)cc21` (centres unmarked) [Compound 5-2]: the IC50 in test [1] is greater than 0.501 µM; in test [2], 0.201 to 0.5 µM.

Regarding `COc1[nH]ncc1-c1ccc2c(C(=O)C3COc4ccc(Cl)cc4C3)cn(CC3(N)CC3)c2c1` (centres unmarked) [Compound 4-1, [1-[(1-aminocyclopropyl)methyl]-6-(5-methoxy-1H-pyrazol-4-yl)indol-3-yl]-(6-chlorochroman-3-yl)methanone], the IC50 in test [1] and in test [2] was less than 0.02 µM throughout.

As for `CN(C)CCn1nc(C(=O)[C@@H]2COc3ccc(F)cc3C2)c2ccc(-c3c[nH]nc3Cl)cc21` [Compound 5-53], the IC50 in test [1] is 0.201 to 0.5 µM; in test [2] it was less than 0.02 µM.

Regarding `O=C(c1cn(C[C@H]2CCN2)c2cc(-c3cn[nH]c3F)ccc12)C1COc2ccc(Cl)cc2C1` (some centres unmarked) [Compound 1-40], the IC50 was greater than 0.501 µM in test [1] and less than 0.02 µM in test [2].

As to `COc1[nH]ncc1-c1ccc2c(C(=O)C3COc4ccc(Cl)cc4C3)cn(C[C@@H](C)N(C)C)c2c1` (some centres unmarked) [Compound 2-14], the IC50 in test [1] is 0.201 to 0.5 µM; in test [2] it was less than 0.02 µM.

On to `COc1[nH]ncc1-c1ccc2c(C(=O)C3COc4ccc(Cl)cc4C3)cn(CC3CNC3)c2c1` (centres unmarked) [Compound 1-22], for which the IC50 in test [1] and in test [2] was less than 0.02 µM throughout.

`CN(C)CCn1cc(C(=O)C2COc3ccc(Cl)cc3C2)c2ccc(-c3c[nH]nc3Cl)nc21` (centres unmarked) [Compound 1-9]: the IC50 lay in the range of 0.201 to 0.5 µM in test [1] and 0.021 to 0.2 µM in test [2].

For `CN(C)CCn1cc(C(=O)C2COc3ccc(F)cc3C2)c2cnc(-c3c[nH]nc3Cl)cc21` (centres unmarked) [Compound 1-12], the IC50 was greater than 0.501 µM in test [1] and 0.201 to 0.5 µM in test [2].

For `COc1n[nH]cc1-c1ccc2c(C(=O)C3COc4ccc(Cl)cc4C3)cn(C[C@@H](C)N)c2c1` (some centres unmarked) [Compound 2-6], the values for the IC50 in test [1] and in test [2] were 0.021 to 0.2 µM and less than 0.02 µM, respectively.

`COc1[nH]ncc1-c1ccc2c(C(=O)C3COc4ccc(Cl)cc4C3)cn(CC3CN(C)C3)c2c1` (centres unmarked) [Compound 1-44]: the IC50 was greater than 0.501 µM in test [1] and less than 0.02 µM in test [2].

Regarding `C[C@H](N)Cn1cc(C(=O)C2COc3ccc(Cl)cc3C2)c2ccc(-c3cn[nH]c3F)cc21` (some centres unmarked) [Compound 2-8], the IC50 in test [1] and in test [2] was greater than 0.501 µM each time.

Consider `CN(C)CCn1cc(C(=O)C2COc3ccc(F)cc3C2)c2ccc(-c3cn[nH]c3F)cc21` (centres unmarked) [Compound 1-23], for which the IC50 in test [1] was greater than 0.501 µM; in test [2], 0.021 to 0.2 µM.

Consider `C[C@H](Cn1cc(C(=O)C2COc3ccc(Cl)cc3C2)c2ccc(-c3cn[nH]c3F)cc21)N(C)C` (some centres unmarked) [Compound 2-16], for which the IC50 in test [1] was greater than 0.501 µM; in test [2] it was less than 0.02 µM.

As for `NC1(Cn2cc(C(=O)C3COc4ccc(F)cc4C3)c3ccc(-c4cn[nH]c4Cl)cc32)CC1` (centres unmarked) [Compound 4-4], the IC50 was 0.021 to 0.2 µM in test [1] and less than 0.02 µM in test [2].

Consider `CCN(CCF)CCn1cc(C(=O)[C@@H]2COc3ccc(OC)cc3C2)c2ccc(-c3c[nH]nc3Cl)cc21` [Compound 5-12], for which the IC50 in test [1] was greater than 0.501 µM; in test [2], 0.021 to 0.2 µM.
